From the NIST ThermoML archive (doi:10.1016/j.jct.2018.09.027)
± gives the expanded uncertainty stated by the source.

Conditions: Crystal; for vapor or sublimation pressure: Calculated from knudsen effusion weight loss

O=C(O)c1cc(O)c(O)c(O)c1 [3,4,5-trihydroxybenzoic acid]
vapor or sublimation pressure (432.88 K): 9.61e-05 ± 2e-05 kPa
vapor or sublimation pressure (434.44 K): 0.0001197 ± 2e-05 kPa
vapor or sublimation pressure (436.46 K): 0.0001349 ± 2.1e-05 kPa
vapor or sublimation pressure (438.62 K): 0.0001688 ± 2.1e-05 kPa
vapor or sublimation pressure (440.5 K): 0.0001779 ± 2.1e-05 kPa
vapor or sublimation pressure (442.58 K): 0.0002341 ± 2.2e-05 kPa
vapor or sublimation pressure (444.57 K): 0.000257 ± 2.2e-05 kPa
vapor or sublimation pressure (446.54 K): 0.000313 ± 2.3e-05 kPa
vapor or sublimation pressure (448.7 K): 0.0003927 ± 2.4e-05 kPa
vapor or sublimation pressure (450.78 K): 0.0004674 ± 2.6e-05 kPa
vapor or sublimation pressure (452.6 K): 0.0005635 ± 2.8e-05 kPa
vapor or sublimation pressure (454.63 K): 0.0006284 ± 3e-05 kPa
vapor or sublimation pressure (456.47 K): 0.0008057 ± 3.5e-05 kPa
vapor or sublimation pressure (458.78 K): 0.0009376 ± 3.9e-05 kPa
Normal melting temperature (DTA): 263.5 ± 0.7 °C
